Laboratory results as given in patent US20250154162A1, “COMPOUND FOR REGULATING AND CONTROLLING 15-PGDH ACTIVITY AND PREPARATION METHOD THEREFOR” (SCINNOHUB PHARMACEUTICAL CO., LTD., priority 2022, published 2025).

How the values were obtained:
15-PGDH = 15-PGDH (Homo sapiens (Human), UniProt P15428); assay: Detection of 15-PGDH enzyme activity; type: biochemical; conditions: 15-PGDH enzyme inhibitory activity; substrates β-NAD and PGF2α
From the text: The formula was shown below: Y=Bottom+(Top-Bottom)/(1+10∧((LogIC50−X)*HillSlope)), wherein X is a log value of a concentration of the compound, and Y is inhibition rate %.

A549 cells = assay: Assay of intracellular PGE2 up-regulatory activity; type: cell-based; conditions: Homo sapiens, IL-1β induced, 8 h, relative to positive control group; for activity at 0.3 µM: 300 nM compound, read-out: PGE2 upregulation rate at 300 nM compound concentration; for activity at 0.01 µM: 10 nM compound, read-out: PGE2 upregulation rate at 10 nM compound concentration
Description: • a) A549 cells were inoculated in the 24-well plate, and after cell adhesion, IL-1β was added thereto for 16 h of stimulation to induce COX2 expression and PGE2 production. • b) A solution of the compound to be tested was prepared with the culture medium and gradiently diluted to 3 concentrations of 10 nM, 300 nM and 10,000 nM or 7 concentrations of 0.64 nM, 3.2 nM, 16 nM, 80 nM, 400 nM, 2000 nM and 10,000 nM, and meanwhile the positive control group (only IL-1β was added to the cells for induction) and negative control group (only cells were added in the wells without any treatment) were set up. The cell supernatants were collected after 8 h of action, in which the positive control group was induced by IL-1β without treatment of the compounds, and the negative control group was neither stimulated by IL-1β, nor treated with the compounds. • c) The PGE2 content of the samples was determined by Prostaglandin E2 Kit, and the fluorescence signal was detected by a multifunctional microplate reader (Ex/Em=337/620, 337/665).
• a) A standard curve was plotted with the PGE2 standard in the Prostaglandin E2 Kit, and the PGE2 concentration was calculated by substituting with the fluorescence signal of the sample. • b) The PGE2 upregulation rate % was calculated by using the following formula: • PGE2 upregulation rate %=(PGE2 concentration of sample group/PGE2 concentration of positive control group)×100%.

Chain of 15-PGDH (P15428 whole entry): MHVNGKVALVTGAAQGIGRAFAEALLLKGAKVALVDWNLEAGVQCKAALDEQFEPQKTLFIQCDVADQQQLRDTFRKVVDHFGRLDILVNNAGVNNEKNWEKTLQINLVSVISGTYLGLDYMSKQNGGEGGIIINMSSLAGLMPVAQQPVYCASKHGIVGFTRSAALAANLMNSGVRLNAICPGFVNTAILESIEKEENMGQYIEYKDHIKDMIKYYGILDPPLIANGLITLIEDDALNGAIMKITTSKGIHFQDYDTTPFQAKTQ

How did the IC50 (15-PGDH) turn out when `Nc1c(C(=O)N2CCCCC2)sc2nc(-c3ccncc3)cnc12` [Example 27] was run?
Its IC50 is 0.5 to 3 nM.

Which results are given for `CN1CCN(c2ncc(-c3cnc4c(N)c(C(=O)N5CCCCC5)sc4n3)cn2)CC1` [Example 28]?
IC50 (15-PGDH): 0.5 to 3 nM; activity at 0.3 µM (A549 cells): 318%

For `Nc1c(C(=O)N2CCCCC2)sc2nc(-c3cccc4ccccc34)cnc12` [Example 61], which IC50 (15-PGDH) is on record?
Its IC50 is 3 to 10 nM.

How did the IC50 (15-PGDH) turn out when `Nc1c(C(=O)N2CCCCC2)sc2nc(-c3ccccc3)cnc12` [Example 1, (7-amino-3-phenylthieno[2,3-b]pyrazin-6-yl) (piperidin-1-yl) methanone] was run?
The IC50 was 3 to 10 nM.

`Nc1c(C(=O)N2CCCCC2)sc2nc(-c3cnc4[nH]ncc4c3)cnc12` [Example 41] was tested. Which IC50 (15-PGDH) did it give?
Its IC50 is 3 to 10 nM.

How did the IC50 (15-PGDH) turn out when `Nc1c(C(=O)N2CCCCC2)sc2nc(-c3ccc4nccnc4c3)cnc12` [Example 12] was run?
The IC50 was 0.5 to 3 nM.

And the activity at 0.3 µM (A549 cells)?
The activity at 0.3 µM was 170%.

Which IC50 (15-PGDH) does the source give for `Nc1c(C(=O)N2CCCCC2)sc2nc(-c3cccs3)cnc12` [Example 5] here?
The IC50 was 0.5 to 3 nM.

And the activity at 0.01 µM (A549 cells)?
The activity at 0.01 µM was 451%.

`Nc1c(C(=O)N2CCCCC2)sc2nc(-c3ccc(N4CCOCC4)nc3)cnc12` [Example 19] was tested. Which IC50 (15-PGDH) did it give?
The IC50 was 3 to 10 nM.

How did the IC50 (15-PGDH) turn out when `Nc1c(C(=O)N2CCC(F)(F)C2)sc2nc(-c3ccccc3)cnc12` [Example 50] was run?
The IC50 was 50 to 1000 nM.

How did the IC50 (15-PGDH) turn out when `Nc1c(C(=O)N2CCC(F)CC2)sc2nc(-c3ccccc3)cnc12` [Example 3, (7-amino-3-phenylthieno[2,3-b]pyrazin-6-yl) (4-fluoropiperidin-1-yl) methanone] was run?
The IC50 was 10 to 25 nM.

How did the IC50 (15-PGDH) turn out when `Nc1c(C(=O)N2CCC3(CC2)CC3)sc2nc(-c3ccccc3)cnc12` [Example 57] was run?
The IC50 was 50 to 1000 nM.

Which results are given for `COc1cncc(-c2cnc3c(N)c(C(=O)N4CCCCC4)sc3n2)c1` [Example 45]?
IC50 (15-PGDH): 0.5 to 3 nM; activity at 0.01 µM (A549 cells): 177%; activity at 0.3 µM (A549 cells): 347%

Which IC50 (15-PGDH) does the source give for `Cc1cc(-c2cnc3c(N)c(C(=O)N4CCCCC4)sc3n2)ccn1` [Example 30] here?
Its IC50 is 0.5 to 3 nM.

And the activity at 0.3 µM (A549 cells)?
The activity at 0.3 µM was 341%.

With `Cn1ncc2cc(-c3cnc4c(N)c(C(=O)N5CCCCC5)sc4n3)ccc21` [Example 18] as the compound, how does the IC50 (15-PGDH) read?
Its IC50 is 3 to 10 nM.

How did the IC50 (15-PGDH) turn out when `Nc1cc(-c2cnc3c(N)c(C(=O)N4CCCCC4)sc3n2)ccn1` [Example 62] was run?
Its IC50 is 0.5 to 3 nM.

With `Nc1c(C(=O)N2CCCCC2)sc2nc(-c3ccc4ccccc4c3)cnc12` [Example 35] as the compound, how does the IC50 (15-PGDH) read?
Its IC50 is 0.5 to 3 nM.

And the activity at 0.01 µM (A549 cells)?
Its activity at 0.01 µM is 208%.

And the activity at 0.3 µM (A549 cells)?
The activity at 0.3 µM was 231%.

`CC1(C)CCN(C(=O)c2sc3nc(-c4ccccc4)cnc3c2N)CC1` [Example 56] was tested. Which IC50 (15-PGDH) did it give?
The IC50 was 50 to 1000 nM.

How did the IC50 (15-PGDH) turn out when `Nc1c(C(=O)N2CCCCC2)sc2nc(-c3ccnc(F)c3)cnc12` [Example 21] was run?
Its IC50 is < 0.5 nM.

And the activity at 0.3 µM (A549 cells)?
The activity at 0.3 µM was 211%.

With `Nc1c(C(=O)N2CCS(=O)(=O)CC2)sc2nc(-c3ccccc3)cnc12` [Example 53] as the compound, how does the IC50 (15-PGDH) read?
Its IC50 is 1000 to 5000 nM.

Which IC50 (15-PGDH) does the source give for `CN1CCN(C(=O)c2sc3nc(-c4ccccc4)cnc3c2N)CC1` [Example 52] here?
The IC50 was 50 to 1000 nM.

Which results are given for `Nc1c(C(=O)N2CCCCC2)sc2nc(-c3ccc4ncccc4c3)cnc12` [Example 22]?
IC50 (15-PGDH): 0.5 to 3 nM; activity at 0.01 µM (A549 cells): 282%; activity at 0.3 µM (A549 cells): 329%

With `Nc1c(C(=O)N2CCC(F)(F)CC2)sc2nc(-c3ccccc3)cnc12` [Example 49] as the compound, how does the IC50 (15-PGDH) read?
The IC50 was 50 to 1000 nM.

`CC1CN(C(=O)c2sc3nc(-c4ccccc4)cnc3c2N)CC(C)O1` (stereo not drawn) [Example 55] was tested. Which IC50 (15-PGDH) did it give?
Its IC50 is 50 to 1000 nM.

Which IC50 (15-PGDH) does the source give for `Nc1c(C(=O)N2CC3(COC3)C2)sc2nc(-c3ccccc3)cnc12` [Example 59] here?
Its IC50 is > 5000 nM.

For `Cn1ccc2cc(-c3cnc4c(N)c(C(=O)N5CCCCC5)sc4n3)ccc2c1=O` [Example 64], which IC50 (15-PGDH) is on record?
The IC50 was 0.5 to 3 nM.

And the activity at 0.01 µM (A549 cells)?
Its activity at 0.01 µM is 173%.

And the activity at 0.3 µM (A549 cells)?
Its activity at 0.3 µM is 196%.

How did the IC50 (15-PGDH) turn out when `CN1Cc2cc(-c3cnc4c(N)c(C(=O)N5CCCCC5)sc4n3)ccc2C1=O` [Example 63] was run?
Its IC50 is 0.5 to 3 nM.

What about the activity at 0.3 µM (A549 cells) of the same compound?
Its activity at 0.3 µM is 222%.

`Nc1c(C(=O)N2CCCCC2)sc2nc(-c3cnc4ccccc4c3)cnc12` [Example 31] was tested. Which IC50 (15-PGDH) did it give?
Its IC50 is 0.5 to 3 nM.

`Cc1noc(C)c1-c1cnc2c(N)c(C(=O)N3CCCCC3)sc2n1` [Example 11] was tested. Which IC50 (15-PGDH) did it give?
The IC50 was 0.5 to 3 nM.

And the activity at 0.01 µM (A549 cells)?
Its activity at 0.01 µM is 990%.

With `COc1ccc(-c2cnc3c(N)c(C(=O)N4CCCCC4)sc3n2)cn1` [Example 20] as the compound, how does the IC50 (15-PGDH) read?
Its IC50 is 0.5 to 3 nM.

With `Cn1ccc(-c2cnc3c(N)c(C(=O)N4CCCCC4)sc3n2)n1` [Example 8] as the compound, how does the IC50 (15-PGDH) read?
Its IC50 is 3 to 10 nM.

For `Nc1c(C(=O)N2CCCCC2)sc2nc(-c3cncs3)cnc12` [Example 7], which IC50 (15-PGDH) is on record?
Its IC50 is 0.5 to 3 nM.

What about the activity at 0.01 µM (A549 cells) of the same compound?
The activity at 0.01 µM was 479%.

And the activity at 0.3 µM (A549 cells)?
The activity at 0.3 µM was 758%.
